Measurements reported in patent US6525001B1, “Substituted pyrimidine and pyridine herbicides” (Mid-American Commercialization Corporation, priority 1997, dated 2003).

Key:
Assay in all cases: Test B pre-/postemergence
Format in all cases: in vivo
Design in all cases: key: 0 is no effect; 10 is complete control
[1] = test system: sugar beet (Beta vulgaris)
Method in brief: (§1)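 Scored visually 0 (none) to 10 (complete control) against untreated plants after twelve to sixteen greenhouse days. Test chemicals, formulated in surfactant-containing non-phytotoxic solvent, applied to soil after planting and, separately, onto 1- to 4-leaf (2–18 cm) plants.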

[2] = test system: crabgrass (Digitaria sanguinalis)
Method in brief: as §1

[3] = test system: bedstraw (Galium aparine)
Method in brief: as §1

soybean (Glycine max) = test system: soybean (Glycine max)
Method in brief: as §1

[4] = test system: pigweed (Amaranthus retroflexus)
Method in brief: as §1

wild oat (Avena fatua) = test system: wild oat (Avena fatua)
Method in brief: as §1

[5] = test system: giant foxtail (Setaria faberii)
Method in brief: as §1

corn (Zea mays) = test system: corn (Zea mays)
Method in brief: as §1

rape (Brassica napus) = test system: rape (Brassica napus)
Method in brief: as §1

[6] = test system: momingglory (Ipomoea hederacea)
Method in brief: as §1

[7] = test system: purple nutsedge (Cyperus rotundus)
Method in brief: as §1

[8] = test system: cocklebur (Xanthium strumarium)
Method in brief: as §1

[9] = test system: wheat (Triticum aestivum)
Method in brief: as §1

[10] = test system: velvetleaf (Abutilon theophrasti)
Method in brief: as §1

[11] = Preemergence, Rate 62 g/ha, scale of 0 to 10

Cc1cnc(-n2cnc(C(F)(F)F)c2)nc1C(=O)c1cccc(OC(F)(F)F)c1 [Compound 63]
6: Plant response rating, Crabgrass ([2]; Rate 125 g/ha, Preemergence) | Plant response rating, Crabgrass ([2]; Rate 500 g/ha, Postemergence) | Plant response rating, Giant foxtail ([5]; Rate 250 g/ha, Preemergence)
2: Plant response rating, Bedstraw [3, 11] | Bedstraw plant response rating ([3]; Rate 62 g/ha, Postemergence) | Bedstraw plant response rating ([3]; Rate 125 g/ha, Postemergence) | Soybean plant response rating (soybean (Glycine max); Rate 125 g/ha, Postemergence) | Plant response rating, Soybean (soybean (Glycine max); Rate 250 g/ha, Postemergence) | Plant response rating, Soybean (soybean (Glycine max); Rate 500 g/ha, Postemergence) | Wild oats plant response rating (wild oat (Avena fatua); Rate 125 g/ha, Postemergence) | Plant response rating, Wild oats (wild oat (Avena fatua); Rate 250 g/ha, Postemergence) | Plant response rating, Wild oats (wild oat (Avena fatua); Rate 500 g/ha, Postemergence) | Plant response rating, Giant foxtail [5, 11] | Giant foxtail plant response rating ([5]; Rate 62 g/ha, Postemergence) | Giant foxtail plant response rating ([5]; Rate 125 g/ha, Postemergence) | Corn plant response rating (corn (Zea mays); Rate 125 g/ha, Postemergence) | Plant response rating, Corn (corn (Zea mays); Rate 250 g/ha, Postemergence) | Plant response rating, Corn (corn (Zea mays); Rate 500 g/ha, Postemergence) | Plant response rating, Corn (corn (Zea mays); Rate 500 g/ha, Preemergence) | Plant response rating, Morningglory [6, 11] | Morningglory plant response rating ([6]; Rate 62 g/ha, Postemergence) | Plant response rating, Wheat [9, 11] | Wheat plant response rating ([9]; Rate 62 g/ha, Postemergence) | Wheat plant response rating ([9]; Rate 125 g/ha, Postemergence) | Plant response rating, Wheat ([9]; Rate 125 g/ha, Preemergence) | Plant response rating, Wheat ([9]; Rate 250 g/ha, Postemergence) | Plant response rating, Wheat ([9]; Rate 500 g/ha, Postemergence) | Plant response rating, Velvetleaf [10, 11] | Velvetleaf plant response rating ([10]; Rate 62 g/ha, Postemergence) | Plant response rating, Velvetleaf ([10]; Rate 125 g/ha, Preemergence)
9: Sugarbeets plant response rating ([1]; Rate 125 g/ha, Postemergence) | Plant response rating, Sugarbeets ([1]; Rate 250 g/ha, Postemergence) | Plant response rating, Sugarbeets ([1]; Rate 500 g/ha, Postemergence) | Plant response rating, Crabgrass ([2]; Rate 500 g/ha, Preemergence) | Redroot pigweed plant response rating ([4]; Rate 125 g/ha, Postemergence) | Plant response rating, Redroot pigweed ([4]; Rate 125 g/ha, Preemergence) | Plant response rating, Redroot pigweed ([4]; Rate 250 g/ha, Postemergence) | Plant response rating, Redroot pigweed ([4]; Rate 500 g/ha, Postemergence)
3: Plant response rating, Crabgrass [2, 11] | Crabgrass plant response rating ([2]; Rate 62 g/ha, Postemergence) | Crabgrass plant response rating ([2]; Rate 125 g/ha, Postemergence) | Plant response rating, Wild oats (wild oat (Avena fatua); [11]) | Wild oats plant response rating (wild oat (Avena fatua); Rate 62 g/ha, Postemergence) | Plant response rating, Wild oats (wild oat (Avena fatua); Rate 125 g/ha, Preemergence) | Plant response rating, Giant foxtail ([5]; Rate 125 g/ha, Preemergence) | Plant response rating, Giant foxtail ([5]; Rate 250 g/ha, Postemergence) | Plant response rating, Giant foxtail ([5]; Rate 500 g/ha, Postemergence) | Plant response rating, Rape (rape (Brassica napus); [11]) | Rape plant response rating (rape (Brassica napus); Rate 62 g/ha, Postemergence) | Plant response rating, Rape (rape (Brassica napus); Rate 125 g/ha, Preemergence) | Cocklebur plant response rating ([8]; Rate 125 g/ha, Postemergence) | Plant response rating, Wheat ([9]; Rate 250 g/ha, Preemergence)
10: Plant response rating, Sugarbeets [1, 11] | Sugarbeets plant response rating ([1]; Rate 62 g/ha, Postemergence) | Plant response rating, Sugarbeets ([1]; Rate 125 g/ha, Preemergence) | Plant response rating, Sugarbeets ([1]; Rate 250 g/ha, Preemergence) | Plant response rating, Sugarbeets ([1]; Rate 500 g/ha, Preemergence) | Plant response rating, Redroot pigweed ([4]; Rate 250 g/ha, Preemergence) | Plant response rating, Redroot pigweed ([4]; Rate 500 g/ha, Preemergence) | Plant response rating, Morningglory ([6]; Rate 250 g/ha, Postemergence) | Plant response rating, Morningglory ([6]; Rate 250 g/ha, Preemergence) | Plant response rating, Morningglory ([6]; Rate 500 g/ha, Postemergence) | Plant response rating, Morningglory ([6]; Rate 500 g/ha, Preemergence) | Plant response rating, Velvetleaf ([10]; Rate 250 g/ha, Preemergence) | Plant response rating, Velvetleaf ([10]; Rate 500 g/ha, Preemergence)
8: Plant response rating, Crabgrass ([2]; Rate 250 g/ha, Preemergence) | Plant response rating, Bedstraw ([3]; Rate 500 g/ha, Postemergence) | Plant response rating, Bedstraw ([3]; Rate 500 g/ha, Preemergence) | Plant response rating, Redroot pigweed [4, 11] | Redroot pigweed plant response rating ([4]; Rate 62 g/ha, Postemergence) | Plant response rating, Wild oats (wild oat (Avena fatua); Rate 500 g/ha, Preemergence) | Plant response rating, Giant foxtail ([5]; Rate 500 g/ha, Preemergence) | Plant response rating, Rape (rape (Brassica napus); Rate 250 g/ha, Postemergence) | Plant response rating, Rape (rape (Brassica napus); Rate 500 g/ha, Postemergence) | Plant response rating, Rape (rape (Brassica napus); Rate 500 g/ha, Preemergence) | Plant response rating, Cocklebur ([8]; Rate 500 g/ha, Postemergence) | Velvetleaf plant response rating ([10]; Rate 125 g/ha, Postemergence) | Plant response rating, Velvetleaf ([10]; Rate 250 g/ha, Postemergence) | Plant response rating, Velvetleaf ([10]; Rate 500 g/ha, Postemergence)
5: Plant response rating, Bedstraw ([3]; Rate 250 g/ha, Postemergence) | Plant response rating, Wild oats (wild oat (Avena fatua); Rate 250 g/ha, Preemergence)
7: Plant response rating, Morningglory ([6]; Rate 125 g/ha, Preemergence)
4: Plant response rating, Crabgrass ([2]; Rate 250 g/ha, Postemergence) | Plant response rating, Bedstraw ([3]; Rate 125 g/ha, Preemergence) | Plant response rating, Bedstraw ([3]; Rate 250 g/ha, Preemergence) | Rape plant response rating (rape (Brassica napus); Rate 125 g/ha, Postemergence) | Plant response rating, Rape (rape (Brassica napus); Rate 250 g/ha, Preemergence) | Morningglory plant response rating ([6]; Rate 125 g/ha, Postemergence) | Plant response rating, Wheat ([9]; Rate 500 g/ha, Preemergence)
1: Plant response rating, Corn (corn (Zea mays); Rate 125 g/ha, Preemergence) | Plant response rating, Corn (corn (Zea mays); Rate 250 g/ha, Preemergence) | Plant response rating, Cocklebur [8, 11] | Cocklebur plant response rating ([8]; Rate 62 g/ha, Postemergence) | Plant response rating, Cocklebur ([8]; Rate 500 g/ha, Preemergence)
0: Plant response rating, Soybean (soybean (Glycine max); [11]) | Soybean plant response rating (soybean (Glycine max); Rate 62 g/ha, Postemergence) | Plant response rating, Soybean (soybean (Glycine max); Rate 125 g/ha, Preemergence) | Plant response rating, Soybean (soybean (Glycine max); Rate 250 g/ha, Preemergence) | Plant response rating, Soybean (soybean (Glycine max); Rate 500 g/ha, Preemergence) | Plant response rating, Corn (corn (Zea mays); [11]) | Corn plant response rating (corn (Zea mays); Rate 62 g/ha, Postemergence) | Plant response rating, Nutsedge [7, 11] | Nutsedge plant response rating ([7]; Rate 62 g/ha, Postemergence) | Plant response rating, Nutsedge ([7]; Rate 125 g/ha, Preemergence) | Plant response rating, Nutsedge ([7]; Rate 250 g/ha, Postemergence) | Plant response rating, Nutsedge ([7]; Rate 500 g/ha, Preemergence)
